Results from BindingDB's records for patent WO2024186584 (8932 Hightail Drive, 2024).
pKi: −log10 of the molar value.

Molecular target: Amyloid-beta precursor protein (Homo sapiens, UniProt P05067)
Experiment: Competitive radioligand binding to pathological aggregated beta amyloid in AD tissue

Amyloid-beta precursor protein, sequence (P05067 whole entry): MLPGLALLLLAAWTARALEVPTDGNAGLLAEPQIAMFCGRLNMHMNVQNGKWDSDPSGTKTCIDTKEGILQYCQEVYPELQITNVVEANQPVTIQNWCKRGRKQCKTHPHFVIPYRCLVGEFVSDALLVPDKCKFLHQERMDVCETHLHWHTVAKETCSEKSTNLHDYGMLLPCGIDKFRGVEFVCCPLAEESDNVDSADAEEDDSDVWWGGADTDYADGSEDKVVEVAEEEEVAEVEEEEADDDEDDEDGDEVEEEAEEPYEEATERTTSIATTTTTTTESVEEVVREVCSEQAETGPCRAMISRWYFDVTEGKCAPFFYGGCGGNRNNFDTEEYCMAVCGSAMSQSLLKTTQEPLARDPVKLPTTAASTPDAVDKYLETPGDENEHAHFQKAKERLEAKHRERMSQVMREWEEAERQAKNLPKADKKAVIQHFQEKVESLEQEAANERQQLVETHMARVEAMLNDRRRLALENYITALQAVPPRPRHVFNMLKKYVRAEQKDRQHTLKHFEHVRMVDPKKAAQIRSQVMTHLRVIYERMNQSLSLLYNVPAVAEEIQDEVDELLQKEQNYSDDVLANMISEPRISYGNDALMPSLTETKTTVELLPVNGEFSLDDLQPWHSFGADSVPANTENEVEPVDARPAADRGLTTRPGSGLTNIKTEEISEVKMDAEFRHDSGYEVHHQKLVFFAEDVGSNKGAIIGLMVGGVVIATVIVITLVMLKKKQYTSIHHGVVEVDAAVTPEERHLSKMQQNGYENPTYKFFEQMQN

SMILES | pKi
COC[C@H]1CN(c2ncc(C#Cc3ccc(-n4ccnc4)nc3)cn2)CCN1c1cc(F)ncn1 [WO2024186584, Example 12] | 5.40
FCOC[C@H]1CN(c2ncc(/C=C/c3ccc(-n4ccnc4)nc3)cn2)CCN1c1ncccn1 [WO2024186584, Example 4] | 7.00

The remaining lines, values ahead:

pKi | SMILES
5.40 | COC[C@H]1CN(c2ncc(/C=C/c3ccc(-n4ccnc4)nc3)cn2)CCN1c1ncc(OCCF)cn1 [WO2024186584, Example 35]
5.40 | FCCOC[C@H]1CN(c2ncc(/C=C/c3ccc(-n4ccnc4)nc3)cn2)CCN1c1ncccn1 [WO2024186584, Example 3]
5.40 | COC[C@H]1CN(c2ncc(/C=C/c3ccc(-n4ccnc4)nc3)cn2)CCN1c1ncc(OCC(O)CF)cn1 (stereo partly drawn) [WO2024186584, Example 39]
5.40 | COC[C@H]1CN(c2ncccn2)CCN1c1ncc(/C=C/c2ccc(-n3ccnc3)nc2)cn1 [WO2024186584, Example 28]

Molecular target: Alpha-synuclein (Homo sapiens, UniProt P37840)
Experiment: Alpha-Synuclein Tissue Homogenate Binding Assay
Method: For displacement α-synuclein binding assay, compounds and control were solvated in dimethyl sulfoxide (DMSO) and transferred using focused acoustic energy by an Echo 655 liquid handling instrument (Beckman Coulter, Indianapolis, IN) into designated wells of uniquely bar coded 96-well v-bottom low binding polypropylene microplates (Thermo Scientific, 249946). Compound dose response curves were prepared in a 10-point, 3-fold fashion within columns 2 -11 of the microplate from high to low compound concentrations. The final assay concentration of dose response curves when starting at 1 mM ranged from 1.2 µM to 0.061 nM (0.12 % DMSO final assay concentration, 270 nL/well). Controls included no inhibitor (DMSO only) dispensed into wells A1 – D1, A12 – D12 for minimum efficacy signal and Compound 1000 at a final assay concentration of 12 µM into wells E1 – H1, E12 – H12 for maximum efficacy signal. Liquid-handling steps for dispensing insoluble fractions of PD brain homogenates and 25666 radioligand were performed using a Bravo automated liquid handling platform equipped with a 96LT disposable tip head (Agilent Technologies, Santa Clara, CA). […] A clear adhesive seal (TopSeal-A PLUS, PerkinElmer 6050185) was then applied to the top of each microplate and counted 1 minute/well on MicroBeta2 system (PerkinElmer, Model: 2450-0120).

SMILES | pKi
COC[C@H]1CN(c2cc(F)ccn2)CCN1c1ncc(/C=C/c2ccc(-n3ccnc3)nc2)cn1 [WO2024186584, Example 17] | 9.05
FCOC[C@H]1CN(c2ncc(/C=C/c3ccc(-n4ccnc4)nc3)cn2)CCN1c1ncccn1 [WO2024186584, Example 4] | 8.92
